Laboratory results as given in patent US12496350B2 (Ohio State Innovation Foundation, priority 2018, dated 2025).
pIC50: −log10 of the molar value. Where a SMILES comes first, the peptide text is derived from it. Bridges are numbered along the chain shown (N, C = ends). [ ]: non-standard residue; d: D form. 2Nal = N[C@@H](Cc1ccc2ccccc2c1)C(=O)O; Bta = N[C@@H](Cc1csc2ccccc12)C(=O)O; Pen = CC(C)(S)[C@H](N)C(=O)O; Tle = CC(C)(C)[C@H](N)C(=O)O; Pip = O=C(O)[C@@H]1CCCCN1

Legend:
HeLa cells = test: Cellular uptake efficiency by flow cytometry; assay type: cell-based; conditions: HeLa cells
Protocol: (§1) Cellular Uptake Efficiency: HeLa cells were seeded into 12-well cell-culture treated plates at a final density of 15×10^4 cells/well in DMEM supplemented with 10% FBS and 1% penicillin/streptomycin and incubated overnight at 37° ° C. and 5% CO2. After 24 h, the media was aspirated followed by washing the cells three times with warm DPBS. Peptides were diluted to a final concentration of 5 μM in DMEM containing 10% FBS with 1% penicillin/streptomycin, added to each well and then incubated for 2 h at 37° C. and 5% CO2. After 2 h, treatment media was aspirated and the cells were washed three times with ice-cold DPBS. Cells were removed from the plate via treatment with trypsin/EDTA and then harvested in ice-cold DPBS followed by centrifugation at ×300 RCF, 4° C. for 5 min. Cells were resuspended in DPBS and quantified using a BD Biosciences LSR II flow cytometer and gated using FlowJo. Values for uptake are provided as a percentage relative to positive control, CPP9 ([cyclo-fΦRrRrQ]-miniPEG-K[NF]).
as §1, with “Cellular Uptake. HeLa cells” for “Cellular Uptake Efficiency: HeLa cells”, “at 37° C. and” for “at 37° ° C. and”, “37° C. with 5% CO2.” for “37° C. and 5% CO2.”, “centrifugation at 300 g, 4° C.” for “centrifugation at ×300 RCF, 4° C.”, “control, CPP9 ([cyclo-fΦRrRrQ]-miniPEG-K[NF]), which has a 62% cytosolic entry efficiency. PGD97 entered HeLa cells at 60% efficiency relative to CPP9, corresponding to an absolute cytosolic entry efficiency of ˜36% (FIG. 9).” for “control, CPP9 ([cyclo-fΦRrRrQ]-miniPEG-K[NF]).”

[1] = molecular target: T1, CAL PDZ domain (CALP5-His) (Homo sapiens, UniProt Q9HD26); test: FP/FA-based competition assay, Condition A (probe peptide 26); assay type: binding; conditions: Condition A (superscript a): 50 nM probe peptide 26, 100 nM CALP5-His, 2 mM TCEP
T1 construct: His
Text: First, the C-terminal valine (position 0) was replaced with a variety of residues and evaluated for binding to CAL PDZ domain in silico.

ΔF508CFTR-FAP = test: ΔF508 CFTR membrane expression, FAP assay in HEK-293T cells; assay type: cell-based
Protocol: Effect on ΔF508 CFTR Membrane Expression. HEK-293T cells stably expressing ΔF508CFTR-FAP (Holleran et al. Mol. Med. 2012, 18, 685-696) were seeded into poly-L-lysine-coated white-wall, clear bottom 96-well plates (100,000 cells/well) in complete growth medium and incubated for 24 h at 27° ° C. or 37° C. and 5% CO2. After 24 h, media was aspirated from each well and washed twice with warm DPBS. Compound serial dilutions with or without 10 μM VX809 were added to each well in fresh penicillin/streptomycin-free media containing 10% FBS and incubated at 27° ° C. or 37° ° C. in 5% CO2 for 24 h. After 24 h, the media was aspirated and each well was washed 3× with warm DPBS. 500 nM MG-B-Tau and 500 nM Hoechst 33342 was added in DPBS and MG-B-Tau fluorescence was immediately measured on a TECAN Infinite M1000 plate reader (excitation=640 nm, emission=680 nm, 10 nm bandwidth, 16 distinct points per well). After measurement, the plate was returned to the incubator at 37° C. for 1 h before quantifying Hoechst 33342 fluorescence on a TECAN Infinite M1000 plate reader (excitation=362 nm, emission=492 nm, 5 nm bandwidth, identical points per well as measured for MG-B-Tau). Cell-count normalized fluorescent intensity was determined by dividing the per-well MG-B-Tau intensity by Hoechst intensity and then plotted relative to untreated control using GraphPad PRISM ver. 7.0.

LC3-II = test: Autophagy in macrophages, western blotting for LC3-II; assay type: cell-based, human; conditions: 100 nM, 48 h, ΔF508 CFTR macrophages
Protocol: Effect on Autophagy in Macrophage. Human primary ΔF508 CFTR macrophages were incubated with 10 μM VX809 (n=1) or 100 nM PGD97 (n=2) for 48 h in complete growth medium supplemented with 10% FBS and 1% penicillin/streptomycin at 37° C. Induction of autophagy was determined via western blotting for autophagy-associated protein LC3-II.

CFBE cells [2] = test: Short-circuit current, Ussing chamber; assay type: cell-based; conditions: 100 nM with 10 μM VX661, relative to VX661 only control
Protocol: (§2) Effect on Ion Channel Activity. CFBE or patient-derived primary cells were seeded onto filter inserts and grown to confluence at 37° C. in complete growth medium containing 10% FBS and 1% penicillin/streptomycin. Once confluent, cells were gently washed with DPBS and 10 µM VX661 and/or 100 nM PGD97 were added in complete growth medium supplemented with 10% FBS and 1% penicillin/streptomycin for 4 h or 24 h at 37° ° C. before measuring short circuit current using an Ussing chamber. PGD97 improved the ion channel activity by 33% and 37% relative to VX661 only controls after 4 and 24 h, respectively (FIGS. 12A and 12B).

[3] = system: patient-derived primary cells; test: Short-circuit current, Ussing chamber; assay type: cell-based, human; conditions: 100 nM with 10 μM VX661, 24 h
Protocol: as §2

H358 (lung cancer) cells = test: Cytotoxicity, MTT assay; assay type: cell-based; conditions: 72 h, up to 50 μM
Protocol: (§3) Cytotoxicity. CFBE, HCT116 (colorectal cancer), or H358 (lung cancer) cells were seeded into a 96-well microplate (5000 cells per well) in full growth media and incubated at 37° C. overnight. A serial dilution of PGD97 was prepared in DPBS and then added to each well. The treated cells were incubated at 37° C. with 5% CO2 for 72 h. Following compound treatment, 10 μL of MTT stock solution was added to each well. After an additional 4 h at 37° C., 100 μL of SDS-HCl solubilizing solution was added to each well and the plate was returned to the incubator overnight at 37° C. A Tecan Infinite M1000 Pro microplate reader was used the following morning to measure the absorbance of the formazan product at 565 nm.

CFBE cells [4] = test: Cytotoxicity, MTT assay; assay type: cell-based; conditions: 72 h, up to 50 μM
Protocol: as §3

[5] = system: HCT116 (colorectal cancer) cells; test: Cytotoxicity, MTT assay; assay type: cell-based; conditions: 72 h, up to 50 μM
Protocol: as §3

HCT116 cell spheroids = test: Intracellular stability by MALDI imaging; assay type: in vitro ADME; conditions: after 4 or 24 h incubation with PGD97
Protocol: Intracellular Stability. PGD97 ([…]) was added to HCT116 cell spheroids in RPMI-1640 medium supplemented with 10% FBS and 1% penicillin/streptomycin and incubated for 4 or 24 h. After incubation, spheroids were washed 3× with DPBS, quickly frozen, embedded in a solid support, and cryo-sectioned. Prior to analysis, sinapinic acid was sublimed onto individual slides. The sample was imaged using a Bruker ultrafleXtreme MALDI-TOF-TOF and analyzed for the presence of proteolytic degradation fragments. Heatmaps, scaled relative to the most intense signal, were generated for the intact peptide (both 29 and 32) as well as ˜20 potential proteolytic fragments at each time point. […] A degradation fragment (#1) corresponding to proteolytic cleavage between Thr and Arg (FIG. 8B) was observed, but none of the other potential degradation products were observed. […] Most importantly, significant concentrations of intact peptide 29 was still present inside the cells after 24 h.

| Uptake (% rel.) (HeLa cells; 5 μM, 2 h, relative to CPP9 (100%)) | pIC50 [1] | SMILES | cytosolic entry efficiency relative to CPP9 (HeLa cells; 5 μM, 2 h) | absolute cytosolic entry efficiency (HeLa cells; from relative efficiency and CPP9 value) | concentrations at which increased expression was observed (ΔF508CFTR-FAP) | cell surface expression of ΔF508CFTR-FAP (ΔF508CFTR-FAP; 10 μM PGD97) | cell surface expression of ΔF508CFTR-FAP (ΔF508CFTR-FAP; PGD97 alone, 27° C., 24 h) | cell surface expression of ΔF508CFTR-FAP (ΔF508CFTR-FAP; in combination with 10 μM VX809, 27° C.) | LC3-II protein levels (LC3-II) | improvement of ion channel activity (short-circuit current) (CFBE cells [2]; after 4 h) | improvement of ion channel activity (short-circuit current) (CFBE cells [2]; after 24 h) | ion channel activity (short-circuit current) [3] | cell viability (H358 (lung cancer) cells) | cell viability (CFBE cells [4]) | cell viability [5] | presence of intact peptide in spheroids (HCT116 cell spheroids) |
| --- | --- | --- | --- | --- | --- | --- | --- | --- | --- | --- | --- | --- | --- | --- | --- | --- |
| 17 ± 2% | 6.40 | CC(=O)N[C@@H](CS)C(=O)N[C@@H](CCCNC(=N)N)C(=O)N[C@H](CCCNC(=N)N)C(=O)N[C@@H](CCCNC(=N)N)C(=O)N[C@@H](Cc1ccc2ccccc2c1)C(=O)N[C@@H](Cc1c[nH]c2ccccc12)C(=O)N[C@@H](CCC(N)=O)C(=O)N[C@H](C(=O)N[C@H](C(=O)N[C@@H](CCCNC(=N)N)C(=O)N[C@H](C(=O)O)C(C)(C)C)[C@@H](C)O)C(C)(C)S [Compound 22, Ac-Cys-Arg-(D-Arg)-Arg-(2-Nal)-Trp-Gln-Pen-Thr-Arg-Tle-OH] (Ac-CR[dR]R[2Nal]WQ[Pen]TR[Tle]-OH) | – | – | – | – | – | – | – | – | – | – | – | – | – | – |
| – | – | CC(=O)N[C@H]1CSSC(C)(C)[C@@H](C(=O)N[C@H](C(=O)N[C@@H](CCCNC(=N)N)C(=O)N[C@H](C(=O)O)C(C)(C)C)[C@@H](C)O)NC(=O)[C@@H]2CCCCN2C(=O)[C@H](Cc2csc3ccccc23)NC(=O)[C@H](Cc2ccc3ccccc3c2)NC(=O)[C@H](CCCNC(=N)N)NC(=O)[C@H](CCCNC(=N)N)NC(=O)[C@@H](CCCNC(=N)N)NC1=O [Compound 32, Ac-Cys*-(D-Arg)-Arg-Arg-Nal-Bta-Pip-Pen*-Thr-Arg-Tle-OH] (Ac-C[dR]RR[2Nal][Bta][Pip][Pen]TR[Tle]-OH; disulfide 1-8) | 60% | ~36% | 10 to 1000 nM | reduced its surface expression | slightly increased | further increase in cell surface expression | increased the LC3-II protein levels to nearly WT level | 33% | 37% | significantly increased the ion channel activity | did not significantly reduce the viability | did not significantly reduce the viability | did not significantly reduce the viability | not |
